Test results: patent US10040836B2, “Peptides for the treatment of neurodegenerative diseases” (Ramot at Tel-Aviv University Ltd., priority 2012, dated 2018)
Where a SMILES comes first, the peptide text is derived from it. Where no end group is shown, it is not given here. The star is where a group is joined. Cbz = O=C(OCc1ccccc1)*; CH2F = FC*

How the values were obtained:
caspase-6 = target: T1, caspase-6 (Homo sapiens, UniProt P55212); assay: Purified caspase-6 activity assay (Caspase-Glo 6, Z-VEID-aminoluciferin); type: biochemical
T1 construct: purchased Enzo life-science
T1 sequence (P55212 24-293): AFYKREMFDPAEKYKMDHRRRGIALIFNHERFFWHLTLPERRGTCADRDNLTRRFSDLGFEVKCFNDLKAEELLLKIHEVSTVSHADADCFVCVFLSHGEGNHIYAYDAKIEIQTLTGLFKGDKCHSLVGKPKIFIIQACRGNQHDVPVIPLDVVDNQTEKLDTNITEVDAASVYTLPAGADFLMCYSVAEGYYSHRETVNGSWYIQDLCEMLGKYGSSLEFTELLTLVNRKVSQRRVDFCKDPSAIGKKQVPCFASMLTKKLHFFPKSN
Description: For determining ED11 caspase-6 inhibition ability, the Caspase-Glo® 6 assay (Promega) was carried out according to the manufacturer's instructions. Briefly, 0.1 U/ml Purified caspase-6 (Enzo life-science) was incubated with 0-12 μM Z-VEID-aminoluciferin in the presence of 10 μM ED11 or DMSO as vehicle control, and luminescent signal of released aminoluciferin (as RLU) was detected using Synergy HT multi-mode micro-plate reader (Bio-Tek). For Michaelis-Menten curve plotting, initial velocity was calculated using linear regression of the progress curve linear segment, adjusted to RLU/min. For caspase-3 inhibition capability, caspase-3 inhibitor drug detection kit (Abcam) was performed according to the manufacturer's instructions.
EDII inhibits caspase-6 activity in a purified caspase-6 activity assay: To test the peptide ability to compete on caspase-6 activity, purified caspase-6 and Z-VEID-Aminoluciferin (Caspase-6 Glo™, Promega) were incubated with ED11, and bioluminescence signal was detected using SynergyHT microplate reader (FIGS. 1A-1D).

caspase-3 = target: T2, caspase-3 (Homo sapiens, UniProt P42574); assay: Fluorescent caspase-3 inhibition assay (caspase-3 inhibitor drug detection kit); type: biochemical; details: purified caspase-3/caspase-6 assay, FIGS. 1E-1F
T2 construct: purchased Abcam
T2 sequence (P42574 29-277): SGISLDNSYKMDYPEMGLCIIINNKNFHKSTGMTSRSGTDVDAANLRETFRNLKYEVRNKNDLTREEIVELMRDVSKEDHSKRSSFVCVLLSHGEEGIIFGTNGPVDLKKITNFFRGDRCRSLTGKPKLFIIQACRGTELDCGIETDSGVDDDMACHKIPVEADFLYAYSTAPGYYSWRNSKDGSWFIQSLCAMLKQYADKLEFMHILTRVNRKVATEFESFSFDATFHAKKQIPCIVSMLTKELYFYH

SH-SY5Y cells = assay: Cell viability, proliferation and cell cycle in a basal state; type: cell-based, Human; details: up to 50 μM
Description: SH-SY5Y cells were pre-incubated with 25 μM ED11 for one hour. Then, 10 μM 5-bromo-2-deoxyuridine (BrdU) was added for 2 hours. Medium was discarded and cells were fixed with 70% ethanol. DNA denaturation was conducted with 1.5 M HCl exposure for 30 minutes. FITC conjugated anti-BrdU antibody was used to mark incorporated BrdU. DNA staining was performed by using propidium iodide (PI). 15,000 cells per sample were read using FACS-Calibur flow cytometer, and cell-cycle analysis was conducted after doublet discrimination.
To induce exogenous glutamate toxicity, SH-SY5Y cell were incubated with the indicated concentrations of L-Glutamate (Sigma) for 16 hours, in the presence of 20 μM ED11 or vehicle control. For the In-cell caspase-6 activity assay, green FLICA caspase-6 assay (ImmunoChemistry Technologies) was conducted according to the manufacturer's instructions. Briefly, cells were lifted by trypsin and adjusted to 1.5×10^6 cells/ml. Cells were incubated with FAM-VEID-FMK for 1 hour in 37° C., washed with PBS and 5,000 cells per sample were analyzed by flow-cytometry. For apoptosis detection, Annexin V-FITC apoptosis detection assay (Abcam) was conducted according to the manufacturer's instructions. Briefly, 2×10^5 cells were incubated with Annexin V-FITC and PI for 5 minutes in R.T, and 15,000 cells per sample were analyzed by flow-cytometry. For viability assessment, medium was depleted and washed twice with PBS, and alamar-blue dye (AbD serotec, 1/10 in culture medium) was added to the cells, as instructed by the manufacturer. Fluorescence was monitored at 530-560 nm excitation wavelength and 590 nm emission wavelength, and viability was calculated as percentage of untreated control.

COC(=O)C[C@H](NC(=O)[C@H](C)NC(=O)[C@@H](NC(=O)OCc1ccccc1)C(C)C)C(=O)CF [Z-VAD-FMK, reference compound] (Cbz-Val-Ala-Asp(OMe)-CH2F)
caspase-6 activity, specificity experiment (caspase-6; purified caspase-3/caspase-6 assay, FIGS. 1E-1F): inhibits activity of caspase-3 and caspase-6
caspase-3 activity, specificity experiment (caspase-3): inhibits activity of caspase-3 and caspase-6

GRKKRRQRRRPPQSSEIVLDGTDN [ED11]
cell proliferation (BrdU) (SH-SY5Y cells): no effect
cell viability (ALAMAR blue) (SH-SY5Y cells; 48 hours incubation): no effect
cell cycle state (SH-SY5Y cells; O.N. incubation): no effect

modified peptide: ED11 with three of the amino acids in positions 17, 20 and 23 changed to Histidine (H) (GRKKRRQRRRPPQSSEHVLHGTHN)
caspase-6 activity (caspase-6; purified caspase-6, Z-VEID-aminoluciferin, 10 μM ED11): ineffective and didn't inhibit the caspase 6 activity
